From patent US20240102057A1, “METHODS AND COMPOSITIONS USEFUL FOR THE PRODUCTION OF 4-VINYLPHENOL” (THE REGENTS OF THE UNIVERSITY OF CALIFORNIA, priority 2022, published 2024)

Experiments:
E. coli = settings: cited from earlier work; for toxicity of organic solvent to E. coli: literature reports [10, 16, 17, 25]
PAD enzyme = settings: literature reports [10, 16, 17, 25]; cited from earlier work
microbes = settings: literature report [3]; cited from earlier work
E. coli (Ec) = test: Growth (cell density) in tryptic soy broth supplemented with 4VP or CA; format: cell-based, Escherichia coli; settings: Ec and Ec PAD, 24 h, FIG. 1c, f
Description: (§1) To test whether the PAD strains were able to convert CA to 4VP and evaluate their tolerance to different concentrations of substrate and product, growth experiments were performed in tryptic soy broth supplemented with 0.25 or 0.5 g/L of 4VP, or 1, 5 or 10 g/L of CA. This rich medium was used to provide all the organisms with glucose and amino acids for growth and cell maintenance and allow for continuous PAD protein production during the 4VP production process. The bacterial cell density was measured at the time of inoculation and after 24 h of incubation, and PAD expression was induced at the beginning of the cultivations.
(§2) Cultivations were performed in 48-well flat bottom clear plates (Corning, USA) when an organic overlay was not added, in 48-well FlowerPlates (m2p, Germany) when an overlay was added to rich medium, and in 14 mL round-bottom plastic tubes for lignin liquors with an overlay. Seed cultures of all strains listed in Table 1 were started by inoculating cells from agar plates into tubes with 5 mL of tryptic soy broth and incubating at 30° C. with vigorous shaking for 12 h. For the experiments in the clear plates, inocula were prepared by mixing 1 mL of the seed cultures with 9 mL of fresh tryptic soy broth and incubated for 8 h. […] The optical density at 595 nm was measured using a DTX880 plate reader (Beckton-Coulter, USA).

all tested organisms = test: as above; format: cell-based, E. coli, B. subtilis, C. glutamicum, B. amyloliquefaciens; settings: tryptic soy broth with 0.25 or 0.5 g/L 4VP, 24 h
Description: as §1, §2

[1] = Distribution between aqueous phase and organic overlay in biphasic cultivations (HPLC); format: physicochemical
From the text: One example is the extraction of 4VP from the aqueous phase with octanol in a continuous flow-bed reactor containing immobilized E. coli cells. […] Therefore, we compared the performance of octanol to other mid-chain fatty alcohols with slightly longer alkane chains, decanol and undecanol, when added as overlays to the cultivation media (20% of the aqueous phase volume). To obtain high product concentrations and identify any limitations to the amount of 4VP that can be extracted with the overlays, the four recombinant strains were incubated in the presence of 25 or 75 g/L of CA.
The lignocellulose-derived CA was used to cultivate the 4VP producing strains. […] However, this culture system is not amenable for repeated sampling of aqueous and organic phases to quantify metabolites or for monitoring cell growth in the presence of overlays and dark lignin liquors. Therefore, the incubations in CA-rich liquors were performed in culture tubes in presence of an undecanol overlay, and the OD, CA and 4VP concentrations were measured at 0, 12 and 24 h after inoculation. […]
CA and 4VP were quantified by HPLC in samples taken from the aqueous and organic phases of the cultivations or lignin liquors after diluting with water (aqueous samples) or pure acetonitrile (organic samples). […]

Cg and Cg phdA- strains = test: Growth (cell density) in tryptic soy broth supplemented with 4VP or CA; format: cell-based, Corynebacterium glutamicum; settings: 24 h, FIG. 1a, b
Description: as §1, §2

all Bacillus species = test: as above; format: cell-based, Bacillus subtilis, Bacillus amyloliquefaciens; settings: 24 h, FIG. 1g-i
Description: as §1, §2

SMILES: CCCCCCCCO [octanol]
- toxicity of organic solvent to E. coli (E. coli): significant toxicity
- effect of organic solvent on PAD enzyme activity (PAD enzyme): inhibition
- toxicity of solvent to microbes (microbes): significant toxicity

SMILES: C=Cc1ccc(O)cc1 [4VP, 4-vinylphenol]
- 4VP concentration displaying growth inhibition (E. coli (Ec)): 0.25 g/L
- toxicity of 4VP (all tested organisms): very toxic
- share of product extracted in the organic phase ([1]; undecanol overlay, lignin liquors from corn stover residue): 97%
- toxicity to E. coli relative to CA (E. coli; literature report [12]): significantly more toxic to E. coli than CA

SMILES: CCCCCC [hexane]
- toxicity of organic solvent to E. coli (E. coli): significant toxicity
- effect of organic solvent on PAD enzyme activity (PAD enzyme): inhibition

SMILES: O=C(O)/C=C/c1ccc(O)cc1 [CA, p-coumaric acid]
- CA concentration in the presence of which strains are able to grow (tolerance) (Cg and Cg phdA- strains): up to 10 g/L
- CA concentration above which strains are unable to grow (all Bacillus species): more than 1 g/L
- share of CA not consumed found in the aqueous phase ([1]; octanol, decanol or undecanol overlay (20% of aqueous volume), tryptic soy broth with 25 or 75 g/L CA): more than 90%
